# From patent publication US12139499B2, “Heteroaryl compounds for treating Huntington's disease” (PTC THERAPEUTICS, INC., priority 2018, dated 2024)
# Tested on: Endogenous Huntingtin Protein
# Assay: Endogenous Huntingtin Protein Assay (ELISA-based MSD electrochemiluminescence)
# Type: cell-based
# Conditions: Table 1
# Method in brief: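 Huntingtin was captured overnight at 4 °C on plates coated with 1 μg/mL MW1 (polyQ-expanded) or MAB2166 antibody and BSA-blocked. Detection used a rabbit monoclonal and then a SULFO-TAG goat anti-rabbit antibody (0.25 μg/mL, 1 h each, room temperature). Signal was read by electrochemiluminescence.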
row,Structure (SMILES),IC50 [nM]
1,"Cc1cc(-c2ccc3nc(N(C)C4CCNC(C)(C)C4)sc3c2)cc2cn(C)nc12 (stereo not drawn) [Compound 146, 6-(2,7-dimethyl-2H-indazol-5-yl)-N-(2,2-dimethylpiperidin-4-yl)-N-methyl-1,3-benzothiazol-2-amine]",100 to 500
2,"Cc1cn2cc(-c3cc4sc(N(C)C5CC(C)(C)NC(C)(C)C5)nc4cn3)cc(F)c2n1 [Compound 147, 6-(8-fluoro-2-methylimidazo[1,2-a]pyridin-6-yl)-N-methyl-N-(2,2,6,6-tetramethylpiperidin-4-yl)[1,3]thiazolo[4,5-c]pyridin-2-amine]",≤ 100
3,"CN(c1nc2ccc(-c3cc(C#N)c4nn(C)cc4c3)nc2s1)C1CC(C)(C)NC(C)(C)C1 [Compound 148, 2-methyl-5-{2-[methyl(2,2,6,6-tetramethylpiperidin-4-yl)amino][1,3]thiazolo[5,4-b]pyridin-5-yl}-2H-indazole-7-carbonitrile]",≤ 100
4,"CN(c1nc2ccc(-c3ccc(-c4cn[nH]c4)cc3O)nc2s1)C1CC(C)(C)NC(C)(C)C1 [Compound 149, 2-{2-[methyl(2,2,6,6-tetramethylpiperidin-4-yl)amino][1,3]thiazolo[5,4-b]pyridin-5-yl}-5-(1H-pyrazol-4-yl)phenol]",100 to 500
5,"CN(c1nc2ncc(-c3cc(F)c4nn(C)cc4c3)nc2s1)C1CC(C)(C)NC(C)(C)C1 [Compound 150, 6-(7-fluoro-2-methyl-2H-indazol-5-yl)-N-methyl-N-(2,2,6,6-tetramethylpiperidin-4-yl)[1,3]thiazolo[4,5-b]pyrazin-2-amine]",≤ 100
6,"COc1cc(-c2cc(F)c3nc(C4CCNCC4)sc3c2)nn2cc(C)nc12 [Compound 151, 6-[4-fluoro-2-(piperidin-4-yl)-1,3-benzothiazol-6-yl]-8-methoxy-2-methylimidazo[1,2-b]pyridazine]",≤ 100
7,"Cc1cn2cc(-c3cc(F)c4nc(C5CCNCC5)sc4c3)cc(F)c2n1 [Compound 152, 4-fluoro-6-(8-fluoro-2-methylimidazo[1,2-a]pyridin-6-yl)-2-(piperidin-4-yl)-1,3-benzothiazole]",≤ 100
8,"Cn1cc2cc(-c3cc(Cl)c4nc(C5=CCNCC5)sc4c3)cc(F)c2n1 [Compound 153, 4-chloro-6-(7-fluoro-2-methyl-2H-indazol-5-yl)-2-(1,2,3,6-tetrahydropyridin-4-yl)-1,3-benzothiazole]",1000 to 3000
9,"Cn1cc2cc(-c3cc(Cl)c4nc(C5=CCNCC5)sc4c3)cc(C#N)c2n1 [Compound 154, 5-[4-chloro-2-(1,2,3,6-tetrahydropyridin-4-yl)-1,3-benzothiazol-6-yl]-2-methyl-2H-indazole-7-carbonitrile]",1000 to 3000
10,"CN(c1nc2ccc(-c3ccc4nn(C)cc4c3)cc2s1)C1CCNC(C)(C)C1 (stereo not drawn) [Compound 155, N-(2,2-dimethylpiperidin-4-yl)-N-methyl-6-(2-methyl-2H-indazol-5-yl)-1,3-benzothiazol-2-amine]",100 to 500
11,"Cc1cn2cc(-c3ccc4nc(C5CCNCC5)sc4c3)cnc2n1 [Compound 156, 2-methyl-6-[2-(piperidin-4-yl)-1,3-benzothiazol-6-yl]imidazo[1,2-a]pyrimidine]",1000 to 3000
12,"Cc1cn2cc(-c3cc4sc(N(C)C5CC(C)(C)NC(C)(C)C5)nc4nn3)cc(F)c2n1 [Compound 157, 3-(8-fluoro-2-methylimidazo[1,2-a]pyridin-6-yl)-N-methyl-N-(2,2,6,6-tetramethylpiperidin-4-yl)[1,3]thiazolo[4,5-c]pyridazin-6-amine]",≤ 100
13,"CN(c1nc2nnc(-c3cc(C#N)c4nn(C)cc4c3)cc2s1)C1CC(C)(C)NC(C)(C)C1 [Compound 158, 2-methyl-5-{6-[methyl(2,2,6,6-tetramethylpiperidin-4-yl)amino][1,3]thiazolo[4,5-c]pyridazin-3-yl}-2H-indazole-7-carbonitrile]",100 to 500
14,"CN(c1nc2ncc(-c3ccc(-c4cn[nH]c4)c(F)c3F)nc2s1)C1CC(C)(C)NC(C)(C)C1 [Compound 161, 6-[2,3-difluoro-4-(1H-pyrazol-4-yl)phenyl]-N-methyl-N-(2,2,6,6-tetramethylpiperidin-4-yl)[1,3]thiazolo[4,5-b]pyrazin-2-amine]",1000 to 3000
15,"Cc1cn2nc(-c3cnc4nc(N(C)C5CC(C)(C)NC(C)(C)C5)sc4n3)cc(C)c2n1 [Compound 162, 6-(2,8-dimethylimidazo[1,2-b]pyridazin-6-yl)-N-methyl-N-(2,2,6,6-tetramethylpiperidin-4-yl)[1,3]thiazolo[4,5-b]pyrazin-2-amine]",≤ 100
16,"Cc1cn2cc(-c3cnc4nc(N(C)C5CC(C)(C)NC(C)(C)C5)sc4n3)cc(C#N)c2n1 [Compound 163, 2-methyl-6-{2-[methyl(2,2,6,6-tetramethylpiperidin-4-yl)amino][1,3]thiazolo[4,5-b]pyrazin-6-yl}imidazo[1,2-a]pyridine-8-carbonitrile]",≤ 100
17,"Cc1cn2nc(-c3cc(F)c4nc(N(C)C5CCN[C@@H](C)C5)sc4c3)ccc2n1 (stereo partly drawn) [Compound 164, 4-fluoro-N-methyl-6-(2-methylimidazo[1,2-b]pyridazin-6-yl)-N-[(2S)-2-methylpiperidin-4-yl]-1,3-benzothiazol-2-amine]",≤ 100

row,Structure (SMILES),IC50 [nM]
1,"Cc1cn2nc(-c3cc(F)c4nc(N(C)C5CCN[C@@H](C)C5)sc4c3)cc(C)c2n1 (stereo partly drawn) [Compound 165, 6-(2,8-dimethylimidazo[1,2-b]pyridazin-6-yl)-4-fluoro-N-methyl-N-[(2S)-2-methylpiperidin-4-yl]-1,3-benzothiazol-2-amine]",≤ 100
2,"Cc1cn2nc(-c3cc(F)c4nc(C5CCN6CCCC6C5)sc4c3)ccc2n1 (stereo not drawn) [Compound 166, 6-[4-fluoro-2-(octahydroindolizin-7-yl)-1,3-benzothiazol-6-yl]-2-methylimidazo[1,2-b]pyridazine]",≤ 100
3,"CNc1cc(-c2cc(F)c3nc(C4CCNCC4)sc3c2)nn2cc(C)nc12 [Compound 167, 6-[4-fluoro-2-(piperidin-4-yl)-1,3-benzothiazol-6-yl]-N,2-dimethylimidazo[1,2-b]pyridazin-8-amine]",≤ 100
4,"Cc1cn2nc(-c3cc(F)c4nc(C5CCNCC5)sc4c3)cc(N(C)C)c2n1 [Compound 168, 6-[4-fluoro-2-(piperidin-4-yl)-1,3-benzothiazol-6-yl]-N,N,2-trimethylimidazo[1,2-b]pyridazin-8-amine]",≤ 100
5,"Cc1cn2cc(-c3ccc4nc(C5CCNCC5)sc4c3)ncc2n1 [Compound 169, 2-methyl-6-[2-(piperidin-4-yl)-1,3-benzothiazol-6-yl]imidazo[1,2-a]pyrazine]",100 to 500
6,"Cc1cn2cc(-c3ncc4nc(N(C)C5CC(C)(C)NC(C)(C)C5)sc4n3)cc(C#N)c2n1 [Compound 170, 2-methyl-6-{2-[methyl(2,2,6,6-tetramethylpiperidin-4-yl)amino][1,3]thiazolo[5,4-d]pyrimidin-5-yl}imidazo[1,2-a]pyridine-8-carbonitrile]",≤ 100
7,"Cc1cn2cc(-c3ncc4nc(N(C)C5CC(C)(C)NC(C)(C)C5)sc4n3)cc(F)c2n1 [Compound 171, 5-(8-fluoro-2-methylimidazo[1,2-a]pyridin-6-yl)-N-methyl-N-(2,2,6,6-tetramethylpiperidin-4-yl)[1,3]thiazolo[5,4-d]pyrimidin-2-amine]",≤ 100
8,"Cn1cc2cc(-c3cc(C#N)c4nc(C5=CCNCC5)sc4c3)cc(C#N)c2n1 [Compound 172, 6-(7-cyano-2-methyl-2H-indazol-5-yl)-2-(1,2,3,6-tetrahydropyridin-4-yl)-1,3-benzothiazole-4-carbonitrile]",1000 to 3000
9,"Cc1cn2cc(-c3cnc4nc(N5CCNCC5)sc4n3)cc(C#N)c2n1 [Compound 173, 2-methyl-6-[2-(piperazin-1-yl)[1,3]thiazolo[4,5-b]pyrazin-6-yl]imidazo[1,2-a]pyridine-8-carbonitrile]",1000 to 3000
10,"Cc1cn2cc(-c3cnc4nc(N5CCNCC5)sc4n3)cc(F)c2n1 [Compound 174, 6-(8-fluoro-2-methylimidazo[1,2-a]pyridin-6-yl)-2-(piperazin-1-yl)[1,3]thiazolo[4,5-b]pyrazine]",1000 to 3000
11,"Cc1cc(-c2ccc3nc(N(C)C4CC(C)NC(C)C4)sc3c2)cc2cn(C)nc12 (stereo not drawn) [Compound 175, 6-(2,7-dimethyl-2H-indazol-5-yl)-N-(2,6-dimethylpiperidin-4-yl)-N-methyl-1,3-benzothiazol-2-amine]",≤ 100
12,"CC1CC(N(C)c2nc3ccc(-c4ccc5nn(C)cc5c4)cc3s2)CC(C)N1 (stereo not drawn) [Compound 176, N-(2,6-dimethylpiperidin-4-yl)-N-methyl-6-(2-methyl-2H-indazol-5-yl)-1,3-benzothiazol-2-amine]",≤ 100
13,"Cc1cn2cc(-c3ccc4nc(N(C)C5CC(C)(C)NC(C)(C)C5)sc4n3)cc(F)c2n1 [Compound 177, 5-(8-fluoro-2-methylimidazo[1,2-a]pyridin-6-yl)-N-methyl-N-(2,2,6,6-tetramethylpiperidin-4-yl)[1,3]thiazolo[5,4-b]pyridin-2-amine]",≤ 100
14,"Cc1cn2cc(-c3ccc4nc(N(C)C5CC(C)(C)NC(C)(C)C5)sc4n3)cc(C#N)c2n1 [Compound 178, 2-methyl-6-{2-[methyl(2,2,6,6-tetramethylpiperidin-4-yl)amino][1,3]thiazolo[5,4-b]pyridin-5-yl}imidazo[1,2-a]pyridine-8-carbonitrile]",≤ 100
15,"Cc1cn2cc(-c3cc4sc(N(C)C5CC(C)(C)NC(C)(C)C5)nc4cn3)cc(C#N)c2n1 [Compound 179, 2-methyl-6-{2-[methyl(2,2,6,6-tetramethylpiperidin-4-yl)amino][1,3]thiazolo[4,5-c]pyridin-6-yl}imidazo[1,2-a]pyridine-8-carbonitrile]",≤ 100
16,"Cc1cn2cc(-c3cnc4nc(OC5CC(C)(C)NC(C)(C)C5)sc4n3)cc(F)c2n1 [Compound 180, 6-(8-fluoro-2-methylimidazo[1,2-a]pyridin-6-yl)-2-[(2,2,6,6-tetramethylpiperidin-4-yl)oxy][1,3]thiazolo[4,5-b]pyrazine]",100 to 500
